{
  "source": "paper PMC4909640",
  "about": "(EBioMedicine, 2016)",
  "system": "enteroendocrine proglucagon-containing cells (L-cells)",
  "conditions": "perfused mouse proximal small intestine, n = 4; basal to peak; P < 0.001",
  "data": [
    {"smiles": "[Cl-].[K+]", "note": "[KCl]", "values": [
      {"measurement": "increase of GLP-1 secretion during infusion", "result": "~ 10 fold"},
      {"measurement": "increase of oxyntomodulin secretion during infusion", "result": "~ 9 fold"}
    ]}
  ]
}
